Laboratory results reported in BindingDB's records for doi:10.1016/S0960-894X(01)80103-7 (1994).

experiment: In vitro thromboxane receptor antagonist activity was determined by inhibition of U-46619 induced aggregation of washed human platelets

Row | IC50 [µM] | SMILES
1 | 0.077 | O=C(O)CC/C=C\CC[C@@H]1[C@@H](c2cccnc2)[S@+]([O-])C[C@H]1OCc1ccc(-c2ccccc2)cc1
2 | 0.105 | O=C(O)CC/C=C\CC[C@@H]1[C@@H](c2cccnc2)[S@@+]([O-])C[C@H]1OCc1ccc(-c2ccccc2)cc1
3 | 0.228 | O=C(O)CCC/C=C\C[C@@H]1[C@@H](c2cccnc2)SC[C@H]1OCc1ccc(-c2ccccc2)cc1 [(Z)-7-[(2S,3S,4S)-4-(Biphenyl-4-ylmethoxy)-2-pyridin-3-yl-tetrahydro-thiophen-3-yl]-hept-5-enoic acid]
4 | 0.024 | O=C(O)CC/C=C\CC[C@H]1[C@@H](OCc2ccc(-c3ccccc3)cc2)CS(=O)(=O)[C@@H]1c1cccnc1 [(Z)-7-[(2S,3S,4R)-4-(Biphenyl-4-ylmethoxy)-1,1-dioxo-2-pyridin-3-yl-tetrahydro-1lambda*6*-thiophen-3-yl]-hept-4-enoic acid]
5 | 0.046 | O=C(O)CC/C=C\CC[C@H]1[C@@H](OCc2ccc(-c3ccccc3)cc2)CS[C@@H]1c1cccnc1 [(Z)-7-[(2S,3S,4R)-4-(Biphenyl-4-ylmethoxy)-2-pyridin-3-yl-tetrahydro-thiophen-3-yl]-hept-4-enoic acid]
6 | 0.018 | O=C(O)CC/C=C\CC[C@@H]1[C@@H](c2cccnc2)S(=O)(=O)C[C@H]1OCc1ccc(-c2ccccc2)cc1 [(Z)-7-[(2S,3S,4S)-4-(Biphenyl-4-ylmethoxy)-1,1-dioxo-2-pyridin-3-yl-tetrahydro-1lambda*6*-thiophen-3-yl]-hept-4-enoic acid]
7 | 0.012 | O=C(O)CC/C=C\CC[C@@H]1[C@@H](N2CCCCC2)[C@@H](O)C[C@@H]1OCc1ccc(-c2ccccc2)cc1 [GR 32191]
8 | 0.057 | O=C(O)CC/C=C\CC[C@H]1[C@@H](OCc2ccc(-c3ccccc3)cc2)C[S+]([O-])[C@@H]1c1cccnc1 (stereo partly drawn) [(Z)-7-[(2S,3S,4R)-4-(Biphenyl-4-ylmethoxy)-1-oxo-2-pyridin-3-yl-tetrahydro-1lambda*4*-thiophen-3-yl]-hept-4-enoic acid]

experiment: as above; remark: another data set of the same source

Row | IC50 [µM] | SMILES
9 | 0.046 | O=C(O)CC/C=C\CC[C@@H]1[C@@H](c2cccnc2)SC[C@H]1OCc1ccc(-c2ccccc2)cc1 [(Z)-7-[(2S,3S,4S)-4-(Biphenyl-4-ylmethoxy)-2-pyridin-3-yl-tetrahydro-thiophen-3-yl]-hept-4-enoic acid]

experiment: as above; remark: another data set of the same source

Row | IC50 [µM] | SMILES
10 | 0.022 | O=C(O)CC/C=C\CC[C@@H]1[C@@H](c2cccnc2)SC[C@H]1OCc1ccc(-c2ccccc2)cc1 [(Z)-7-[(2S,3S,4S)-4-(Biphenyl-4-ylmethoxy)-2-pyridin-3-yl-tetrahydro-thiophen-3-yl]-hept-4-enoic acid]
